Data taken from patent US7247617B2, “Sixteen-member macrolide antiinfective agents” (Kosan Biosciences Incorporated, priority 2004, dated 2007).

Columns and labels:
S. aureus = assay: Biological activity against bacterial strains: S. aureus; type: cell-based, Staphylococcus aureus; design: unit not given here; conditions: for Biological Activity, S. aureus ATCC6538p: strain ATCC6538p; for Biological Activity, S. aureus ATCC14154*: strain ATCC14154, macrolide resistant strain; for Biological Activity, S. aureus ATCC29213: strain ATCC29213; for Biological Activity, S. aureus ATCC33591*: strain ATCC33591, macrolide resistant strain; for Biological Activity, S. aureus ATCCBAA-39*: strain ATCCBAA-39, macrolide resistant strain; for Biological Activity, S. aureus ATCCBAA-44*: strain ATCCBAA-44, macrolide resistant strain
S. pneumoniae = assay: Biological activity against bacterial strains: S. pneumoniae; type: cell-based, Streptococcus pneumoniae; design: Biological Activity, S. pneumoniae ATCC6301 / Biological Activity, S. pneumoniae ATCC700671 / Biological Activity, S. pneumoniae ATCC700676* / Biological Activity, S. pneumoniae ATCC700677* / Biological Activity, S. pneumoniae ATCC700905* / Biological Activity, S. pneumoniae ATCC700906* / Biological Activity, S. pneumoniae ATCC49619: unit not given here; conditions: for Biological Activity, S. pneumoniae ATCC6301: strain ATCC6301; for Biological Activity, S. pneumoniae ATCC49619: strain ATCC49619; for Biological Activity, S. pneumoniae ATCC700671: strain ATCC700671; for Biological Activity, S. pneumoniae ATCC700676*: strain ATCC700676, macrolide resistant strain; for Biological Activity, S. pneumoniae ATCC700677*: strain ATCC700677, macrolide resistant strain; for Biological Activity, S. pneumoniae ATCC700905*: strain ATCC700905, macrolide resistant strain; for Biological Activity, S. pneumoniae ATCC700906*: strain ATCC700906, macrolide resistant strain
S. epidermidis = assay: Biological activity against bacterial strains: S. epidermidis; type: cell-based, Staphylococcus epidermidis; conditions: strain ATCC12228
E. faecalis = assay: Biological activity against bacterial strains: E. faecalis; type: cell-based, Enterococcus faecalis; conditions: strain ATCC51575
Haemophilus Influenzae = assay: H. influenzae Activity; type: cell-based

Row | Structure (SMILES) | Biological Activity, S. aureus ATCC6538p (S. aureus) | Biological Activity, S. aureus ATCC14154* (S. aureus) | Biological Activity, S. aureus ATCC29213 (S. aureus) | Biological Activity, S. aureus ATCC33591* (S. aureus) | Biological Activity, S. aureus ATCCBAA-39* (S. aureus) | Biological Activity, S. aureus ATCCBAA-44* (S. aureus) | Biological Activity, S. pneumoniae ATCC6301 (S. pneumoniae) | Biological Activity, S. pneumoniae ATCC49619 (S. pneumoniae) | Biological Activity, S. pneumoniae ATCC700671 (S. pneumoniae) | Biological Activity, S. pneumoniae ATCC700676* (S. pneumoniae) | Biological Activity, S. pneumoniae ATCC700677* (S. pneumoniae) | Biological Activity, S. pneumoniae ATCC700905* (S. pneumoniae) | Biological Activity, S. pneumoniae ATCC700906* (S. pneumoniae) | Biological Activity, S. epidermidis ATCC12228 (S. epidermidis) | Biological Activity, E. faecalis ATCC51575 (E. faecalis) | H. influenzae Activity, strain ATCC9006 (Haemophilus Influenzae; strain ATCC9006) | H. influenzae Activity, strain ATCC49766 (Haemophilus Influenzae; strain ATCC49766) | decrease in activity compared to OMT (Haemophilus Influenzae; strains ATCC9006 and ATCC49766) [fold]
1 | CCC1OC(=O)CC(O)C(C)C(OC2OC(C)C(O)C(N(C)C)C2O)C(CC=O)CC(C)C(=NOCCCOc2ccc3ncccc3c2)C=CC(C)=CC1CO (stereo not drawn) [Compound A] | 0.025 | 0.20 | 0.098 | >12.5 | >12.5 | >12.5 | 0.025 | 0.01 | 0.025 | 0.025 | 0.20 | 0.025 | >12.5 | 0.098 | >12.5 | 6.25 | 6.25 | ~4
2 | CCC1OC(=O)CC(O)C(C)C(OC2OC(C)C(O)C(N(C)C)C2O)C(CCN2CC(C)CC(C)C2)CC(C)C(=NOCc2ccc(F)cc2)C=CC(C)=CC1CO (stereo not drawn) [Compound W] | 0.78 | 3.12 | 3.12 | >12.5 | >12.5 | >12.5 | 0.39 | 0.39 | 0.39 | 0.39 | >12.5 | 0.39 | >12.5 | 3.12 | >12.5 | – | – | –
3 | CCC1OC(=O)CC(O)C(C)C(OC2OC(C)C(O)C(N(C)C)C2O)C(CCN2CC(C)CC(C)C2)CC(C)C(=NOCCOc2ccccc2)C=CC(C)=CC1CO (stereo not drawn) [Compound V] | 0.78 | 6.25 | 6.25 | >12.5 | >12.5 | >12.5 | 0.20 | 0.39 | 0.39 | 0.78 | >12.5 | 0.39 | >12.5 | 6.25 | >12.5 | – | – | –
4 | CCC1OC(=O)CC(O)C(C)C(OC2OC(C)C(O)C(N(C)C)C2O)C(CCN2CC(C)CC(C)C2)CC(C)C(=NOCCCOc2ccc3ncccc3c2)C=CC(C)=CC1CO (stereo not drawn) [Compound R] | 12.5 | >12.5 | >12.5 | >12.5 | >12.5 | >12.5 | 6.25 | 6.25 | 6.25 | >12.5 | >12.5 | >12.5 | >12.5 | >12.5 | >12.5 | – | – | –
5 | CC[C@H]1OC(=O)C[C@@H](O)[C@H](C)[C@@H](OC2OC(C)C(O)C(N(C)C)C2O)[C@@H](CC=O)C[C@@H](C)C(=N\OCc2ccc(F)cc2)/C=C/C(C)=C/C1CO (stereo partly drawn) [Compound IIc] | 0.78 | 1.56 | 1.56 | >12.5 | >12.5 | >12.5 | 0.2 | 0.2 | 0.39 | 0.2 | 3.12 | 0.39 | >12.5 | 1.56 | >12.5 | – | – | –
6 | CCC1OC(=O)CC(O)C(C)C(OC2OC(C)C(O)C(N(C)C)C2O)C(CCN2CC(C)CC(C)C2)CC(C)C(=NOCCCCOc2ccc3ncccc3c2)C=CC(C)=CC1CO (single isomer, unassigned) [Compound T] | 6.25 | >12.5 | 12.5 | >12.5 | >12.5 | >12.5 | 1.56 | 6.25 | 3.12 | 6.25 | >12.5 | 6.25 | >12.5 | >12.5 | >12.5 | – | – | –
7 | CCC1OC(=O)CC(O)C(C)C(OC2OC(C)C(O)C(N(C)C)C2O)C(CC=O)CC(C)C(=NOCC#Cc2cnc3ccccc3c2)C=CC(C)=CC1CO (single isomer, unassigned) [Compound D] | 0.098 | 0.78 | 0.39 | >12.5 | >12.5 | >12.5 | 0.025 | 0.049 | 0.049 | 0.049 | >12.5 | 0.049 | >12.5 | 0.20 | >12.5 | – | – | –
8 | CCC1OC(=O)CC(O)C(C)C(OC2OC(C)C(O)C(N(C)C)C2O)C(CCN2CC(C)CC(C)C2)CC(C)C(=NOCCOc2ccccc2)C=CC(C)=CC1COC1OC(C)C(O)C(OC)C1OC (stereo not drawn) [Compound O] | 0.20 | 0.78 | 0.39 | >12.5 | >12.5 | >12.5 | 0.39 | 0.78 | 0.39 | 1.56 | 6.25 | 0.78 | 12.5 | 0.39 | >12.5 | – | – | –
